Reference: patent US20230203058A1, “MACROCYCLIC DIAMINE DERIVATIVES AS ENT INHIBITORS FOR THE TREATMENT OF CANCERS, AND COMBINATION THEREOF WITH ADENOSINE RECEPTOR ANTAGONISTS” (ITEOS BELGIUM SA, priority 2020, published 2023)

Each compound was assayed against T1, human ENT1 (Homo sapiens, UniProt Q99808) (assay: ENT1 binding assay (competition with Sahenta-DY647 on JAR cells)). Conditions: competition with Sahenta-DY647 100 nM, 4° C.
T1 sequence (Q99808 1-456): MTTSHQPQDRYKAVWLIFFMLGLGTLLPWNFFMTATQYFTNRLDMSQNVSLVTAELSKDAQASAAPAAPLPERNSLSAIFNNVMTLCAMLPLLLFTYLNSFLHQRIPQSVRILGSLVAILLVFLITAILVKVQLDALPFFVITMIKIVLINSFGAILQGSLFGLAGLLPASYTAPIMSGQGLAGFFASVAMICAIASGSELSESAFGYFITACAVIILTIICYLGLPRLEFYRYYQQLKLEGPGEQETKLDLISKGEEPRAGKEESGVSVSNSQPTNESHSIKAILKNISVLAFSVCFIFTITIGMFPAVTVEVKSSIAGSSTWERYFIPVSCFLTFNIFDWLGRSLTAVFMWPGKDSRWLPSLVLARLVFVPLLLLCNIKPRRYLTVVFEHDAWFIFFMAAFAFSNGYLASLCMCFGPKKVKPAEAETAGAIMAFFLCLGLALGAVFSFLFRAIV
Parameters: JAR cells expressing ENT1 were bought from ATCC® (HTB-144TM); host or cells: JAR cells (human choriocarcinoma line; whole cells)
Protocol: The present assay aims at showing that the compounds of the present invention can bind to human ENT1. The principle of the assay is a competition between the compounds of this invention and Sahenta-DY647, an ENT1 inhibitor that emits fluorescence (Ex = 630 nm, Em = 670 nm). By measuring the fluorescence at the end of the assay we could assess the binding potency of the compounds of the present invention.
JAR cells expressing ENT1 were bought from ATCC® (HTB-144TM). Cells were cultured in RPMI 1640 medium (LONZA®, #BE12-702F/U1) supplemented with 10% FBS (GIBCO®, #10270-106), 10 mM Hepes (LONZA®, #BE17-737E), 1 mM Sodium Pyruvate (LONZA®, #BE13-115E) and 2% Penicillin/Streptomycin (LONZA®, #DE17-603E) at 37° C. and 5% CO2. The assay was conducted on the following buffer: HBSS (LONZA®, #LO-527F) supplemented with 10 mM Hepes (LONZA®, #BE17-737E) and 0.1% BSA (Miltenyi®, #130-091-376) on the day of the assay. JAR cells were resuspended in the described buffer. Compounds of the present invention and Sahenta-DY647 were diluted 200X in the described buffer.
A total of 50000 cells were pre-incubated for 30 min at 4° C. with the compounds of the present invention before adding the corresponded IC90 of Sahenta-DY647 (100 nM) and incubate once more for 30 min at 4° C. The total volume of the reaction was 100 µL (50 µL of cells, 25 µL of the compounds of the present invention and 25 µL of Sahenta-DY647) in a 96 well plate, U-bottom (Greiner®, #650-180). The plates were washed 2X by centrifugation (4 min, 400 rcf at 4° C.) in the same buffer. Cells were resuspended in 70 µL of the buffer and 50 µL was transferred to a Black 384 Optiplate (PerkinElmer®, #6007279). Fluorescence (Ex = 630 nm, Em = 670 nm) was acquired on a Spectramax i3x (Molecular Devices®).

Row | IC50 [nM] | Compound
1 | > 500 | COc1cc2cc(c1OC)OCCCC(O)CCN1CCCN(CCCNC2=O)CC1 (stereo not shown) [Compound 117, 12-hydroxy-74,75-dimethoxy-8-oxa-5-aza-1(1,4) -diazepana-7(1,3)-benzenacyclotetradecaphan-6-one]
2 | > 500 | COc1cc(C(=O)O[C@H]2CCCOc3cccc(c3)C(=O)OCCCN3CCCN(CC2)CC3)cc(OC)c1OC (stereo in doubt) [Compound 17, (12S)-6-oxo-5,8-dioxa-1(1,4)-diazepana-7(1,3)-benzenacyclotetradecaphane-12-yl 3,4,5-trimethoxybenzoate]
3 | 1 to 20 | COc1cc2cc(c1OC)OCCCC(OC(=O)CC1COC1)CCN1CCCN(CCCOC2=O)CC1 (stereo not shown) [Compound 66, 74,75-dimethoxy-6-oxo-5,8-dioxa-1(1,4)-diazepana-7(1,3)-benzenacyclotetradecaphane-12-yl 2-(oxetan-3-yl)acetate]
4 | 1 to 20 | COc1cc(C(=O)OC2CCCOc3cc(cc(Cl)c3Cl)C(=O)OCCCN3CCCN(CC2)CC3)cc(OC)c1OC (stereo not shown) [Compound 21, 74,75-dichloro-6-oxo-5,8-dioxa-1(1,4)-diazepana-7(1,3)-benzenacyclotetradecaphane-12-yl 3,4,5-trimethoxybenzoate]
5 | 1 to 20 | COc1cc2cc(c1OC)OCCCC(OC(=O)c1cccc(Cl)c1Cl)CCN1CCCN(CCCOC2=O)CC1 (stereo not shown) [Compound 78, 74,75-dimethoxy-6-oxo-5,8-dioxa-1(1,4)-diazepana-7(1,3)-benzenacyclotetradecaphane-12-yl 2,3-dichlorobenzoate]
6 | 1 to 20 | COc1cc(C(=O)OC2CCCOc3cc(cc(Cl)c3Br)C(=O)NCCCN3CCCN(CC2)CC3)cc(OC)c1OC (stereo not shown) [Compound 122, 74-bromo-75-chloro-6-oxo-8-oxa-5-aza-1(1,4)-diazepana-7(1,3)-benzenacyclotetradecaphane-12-yl 3,4,5-trimethoxybenzoate]
7 | 1 to 20 | COc1cc2cc(c1OC)OCCCC(OC(=O)C1CNC(=O)C1)CCN1CCCN(CCCOC2=O)CC1 (stereo not shown) [Compound 68, 74,75-dimethoxy-6-oxo-5,8-dioxa-1(1,4)-diazepana-7(1,3)-benzenacyclotetradecaphane-12-yl 5-oxopyrrolidine-3-carboxylate]
8 | 1 to 20 | COc1cc2cc(c1OC)OCCCC(OC(=O)c1cocn1)CCN1CCCN(CCCOC2=O)CC1 (stereo not shown) [Compound 57, 74,75-dimethoxy-6-oxo-5,8-dioxa-1(1,4)-diazepana-7(1,3)-benzenacyclotetradecaphane-12-yl oxazole-4-carboxylate]
9 | 1 to 20 | COc1cc2cc(c1OC)OCCCC(OC(=O)c1cccnc1)CCN1CCCN(CCCOC2=O)CC1 (stereo not shown) [Compound 53, 74,75-dimethoxy-6-oxo-5,8-dioxa-1(1,4)-diazepana-7(1,3)-benzenacyclotetradecaphane-12-yl nicotinate]
10 | 20 to 500 | COc1cc2cc(c1OC)OCCCC(OC(=O)c1cc(Cl)cc(Cl)c1)CCN1CCCN(CCCOC2=O)CC1 (stereo not shown) [Compound 76, 74,75-dimethoxy-6-oxo-5,8-dioxa-1(1,4)-diazepana-7(1,3)-benzenacyclotetradecaphane-12-yl 3,5-dichlorobenzoate]
11 | 1 to 20 | COc1cc2cc(c1OC)OCCCC(OC(=O)CCC(F)(F)F)CCN1CCCN(CCCOC2=O)CC1 (stereo not shown) [Compound 62, 74,75-dimethoxy-6-oxo-5,8-dioxa-1(1,4)-diazepana-7(1,3)-benzenacyclotetradecaphane-12-yl 4,4,4-trifluorobutanoate]
12 | > 500 | COc1cc2cc(c1OC)OCCCC(O/N=C/c1ccccc1)CCN1CCCN(CCCNC2=O)CC1 (stereo not shown) [Compound 114, (E)-benzaldehyde O-(74,75-dimethoxy-6-oxo-8-oxa-5-aza-1(1,4)-diazepana-7(1,3)-benzenacyclotetradecaphane-12-yl) oxime]
13 | 20 to 500 | COc1cc2cc(c1OC)OCCCC(OC(=O)CCN1C(=O)CCC1=O)CCN1CCCN(CCCOC2=O)CC1 (stereo not shown) [Compound 110, 74,75-dimethoxy-6-oxo-5,8-dioxa-1(1,4)-diazepana-7(1,3)-benzenacyclotetradecaphane-12-yl 3-(2,5-dioxopyrrolidin-1-yl)propanoate]
14 | 1 to 20 | COc1cc2cc(c1OC)OCCCC(OC(=O)c1ccc(C(F)(F)F)cc1)CCN1CCCN(CCCOC2=O)CC1 (stereo not shown) [Compound 83, 74,75-dimethoxy-6-oxo-5,8-dioxa-1(1,4)-diazepana-7(1,3)-benzenacyclotetradecaphane-12-yl 4-(trifluoromethyl)benzoate]
15 | 1 to 20 | COc1cc2cc(c1OC)OCCCC(OC(=O)c1ccccc1F)CCN1CCCN(CCCOC2=O)CC1 (stereo not shown) [Compound 47, 74,75-dimethoxy-6-oxo-5,8-dioxa-1(1,4)-diazepana-7(1,3)-benzenacyclotetradecaphane-12-yl 2-fluorobenzoate]
16 | 1 to 20 | CCOc1cc(C(=O)OC2CCCOc3cc(cc(OC)c3OC)C(=O)OCCCN3CCCN(CC2)CC3)cc(OCC)c1OCC (stereo not shown) [Compound 92, 74,75-dimethoxy-6-oxo-5,8-dioxa-1(1,4)-diazepana-7(1,3)-benzenacyclotetradecaphane-12-yl 3,4,5-triethoxybenzoate]
17 | > 500 | COc1cc(C(=O)NC2CCCOc3cc(cc(OC)c3OC)C(=O)OCCCN3CCCN(CC2)CC3)cc(OC)c1OC (stereo not shown) [Compound 3, N-(74,75-dimethoxy-6-oxo-5,8-dioxa-1(1,4)-diazepana-7(1,3)-benzenacyclotetradecaphane-12-yl)-3,4,5-trimethoxybenzamide]
18 | 1 to 20 | COc1cc2cc(c1OC)OCCCC(OC(=O)c1ccc(F)c(F)c1)CCN1CCCN(CCCOC2=O)CC1 (stereo not shown) [Compound 85, 74,75-dimethoxy-6-oxo-5,8-dioxa-1(1,4)-diazepana-7(1,3)-benzenacyclotetradecaphane-12-yl 3,4-difluorobenzoate]
19 | 1 to 20 | COc1cc2cc(c1OC)OCCCC(OC(=O)CCn1cnnn1)CCN1CCCN(CCCOC2=O)CC1 (stereo not shown) [Compound 98, 74,75-dimethoxy-6-oxo-5,8-dioxa-1(1,4)-diazepana-7(1,3)-benzenacyclotetradecaphane-12-yl 3-(1 H-tetrazol-1-yl)propanoate]
20 | 20 to 500 | COc1cc(C(=O)O[C@@H]2CCCOc3cc(cc(Cl)c3Cl)C(=O)OCCCN3CCCN(CC2)CC3)cc(OC)c1OC [Compound 23, (12R)-74,75-dichloro-6-oxo-5,8-dioxa-1(1,4)-diazepana-7(1,3)-benzenacyclotetradecaphane-12-yl 3,4,5-trimethoxybenzoate]
21 | 1 to 20 | COc1cc2cc(c1OC)OCCCC(OC(=O)CCOc1ccc(F)cc1)CCN1CCCN(CCCOC2=O)CC1 (stereo not shown) [Compound 104, 74,75-dimethoxy-6-oxo-5,8-dioxa-1(1,4)-diazepana-7(1,3)-benzenacyclotetradecaphane-12-yl 3-(4-fluorophenoxy)propanoate]
22 | 1 to 20 | COc1cc2cc(c1OC)OCCCC(OC(=O)c1cc(Cl)c(Cl)cc1F)CCN1CCCN(CCCOC2=O)CC1 (stereo not shown) [Compound 91, 74,75-dimethoxy-6-oxo-5,8-dioxa-1(1,4)-diazepana-7(1,3)-benzenacyclotetradecaphane-12-yl 4,5-dichloro-2-fluorobenzoate]
23 | 1 to 20 | COc1cc2cc(c1OC)OCCCC(OC(=O)C1CCCCC1)CCN1CCCN(CCCOC2=O)CC1 (stereo not shown) [Compound 63, 74,75-dimethoxy-6-oxo-5,8-dioxa-1(1,4)-diazepana-7(1,3)-benzenacyclotetradecaphane-12-yl cyclohexanecarboxylate]
24 | > 500 | O=C1NCCCN2CCCN(CC[C@@H](OC(=O)c3ccccc3)CCCOc3cccc1c3)CC2 (stereo in doubt) [Compound 19, (12S)-6-oxo-8-oxa-5-aza-1(1,4)-diazepana-7(1,3)-benzenacyclotetradecaphane-12-yl benzoate]
25 | 1 to 20 | COc1cc2cc(c1OC)OCCCC(OC(=O)c1c(F)cccc1F)CCN1CCCN(CCCOC2=O)CC1 (stereo not shown) [Compound 71, 74,75-dimethoxy-6-oxo-5,8-dioxa-1(1,4)-diazepana-7(1,3)-benzenacyclotetradecaphane-12-yl 2,6-difluorobenzoate]
